Data: patent publication US12421230B2, “Tricyclic heteroaryl compounds useful as IRAK4 inhibitors” (BRISTOL-MYERS SQUIBB COMPANY, priority 2020, dated 2025)

Experiments:
[1] = target: T1, IRAK4 (Homo sapiens, UniProt Q9NWZ3); assay: IRAK4 Inhibition Assay; format: biochemical; settings: ATP 500 μM; fluoresceinated peptide 1.5 μM; IRAK4 0.6 nM; 60 min room temperature; Caliper LABCHIP
T1 sequence (Q9NWZ3 1-460): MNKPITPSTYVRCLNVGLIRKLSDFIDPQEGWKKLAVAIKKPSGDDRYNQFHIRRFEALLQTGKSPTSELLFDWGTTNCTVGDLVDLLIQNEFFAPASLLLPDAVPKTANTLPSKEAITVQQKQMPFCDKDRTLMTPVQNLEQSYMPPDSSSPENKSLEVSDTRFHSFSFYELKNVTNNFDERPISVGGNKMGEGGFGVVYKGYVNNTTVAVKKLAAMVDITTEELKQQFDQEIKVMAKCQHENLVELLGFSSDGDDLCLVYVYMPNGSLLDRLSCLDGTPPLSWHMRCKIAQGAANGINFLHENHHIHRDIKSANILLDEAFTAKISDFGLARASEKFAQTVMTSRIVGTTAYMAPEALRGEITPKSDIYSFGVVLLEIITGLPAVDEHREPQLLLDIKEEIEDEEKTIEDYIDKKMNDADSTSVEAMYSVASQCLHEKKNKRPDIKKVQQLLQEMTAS
Description: The assays were performed in U-bottom 384-well plates. The final assay volume was 30 μL prepared from 15 μL additions of enzyme and substrates (fluoresceinated peptide and ATP) and test compounds in assay buffer (20 mM HEPES pH 7.2, 10 mM MgCl2, 0.015% Brij 35 and 4 mM DTT). The reaction was initiated by the combination of IRAK4 with substrates and test compounds. The reaction mixture was incubated at room temperature for 60 min. and terminated by adding 45 μL of 35 mM EDTA to each sample. The reaction mixture was analyzed on the Caliper LABCHIP® 3000 (Caliper, Hopkinton, MA) by electrophoretic separation of the fluorescent substrate and phosphorylated product. Inhibition data were calculated by comparison to no enzyme control reactions for 100% inhibition and vehicle-only reactions for 0% inhibition. The final concentrations of reagents in the assays are ATP, 500 μM; FL-IPTSPITTTYFFFKKK peptide 1.5 μM; IRAK4, 0.6 nM; and DMSO, 1.6%.

[2] = test system: Human whole blood; assay: IRAK4 Whole Blood Assay; format: cell-based; settings: stimulated with TLR2 agonist lipoteichoic acid 10 μg/mL for 5 hours, IL-6 levels
Description: Human whole blood containing the anti-coagulant ACD-A was plated in 384-well plate (25 μL/well) and incubated with compounds for 60 minutes at 37° C. in a 5% CO2 incubator. The blood was stimulated with a TLR2 agonist, 10 μg/mL final concentration of lipoteichoic acid (Invivogen, San Diego, CA) in 25 μL RPMI (Gibco) for 5 hours in a 5% CO2 incubator. At the end of the incubation, plates were centrifuged at 2300 rpm for 5 minutes. Supernatants were harvested and analyzed for IL-6 levels by Flow Cytometry beads assay (BD Biosciences, San Jose, CA).

## CC(C)CCNC(=O)c1cnc2c([nH]c3cc(C#N)ccc32)c1NC(C)C [Example 21, 7-cyano-N-isopentyl-4-(isopropylamino)-5H-pyrido[3,2-b] indole carboxamide]
[1]
  IC50: 2.1 nM
[2]
  EC50: 1340 nM

## CC(C)(O)CCNC(=O)c1cnc2c([nH]c3cc(C#N)ccc32)c1NC1CC1 [Example 46, 7-cyano-4-(cyclopropylamino)-N-(3-hydroxy-3-methylbutyl)-5H-pyrido[3,2-b]indole-3-carboxamide]
[1]
  IC50: 2.6 nM
[2]
  EC50: 740 nM

## CC(C)Nc1c(C(=O)NCCC(F)(F)F)cnc2c1[nH]c1cc(C#N)ccc12 [Example 27, 7-cyano-4-(isopropylamino)-N-(3,3,3-trifluoropropyl)-5H-pyrido[3,2-b]indole-3-carboxamide]
[1]
  IC50: 13 nM
[2]
  EC50: > 10000 nM

## CCNc1c(C(=O)NCCC2CCCN2)cnc2c1[nH]c1cc(C#N)ccc12 (centres unmarked) [Example 57, 7-cyano-4-(ethylamino)-N-(2-(pyrrolidin-2-yl)ethyl)-5H-pyrido[3,2-b]indole-3-carboxamide]
[1]
  IC50: 18 nM
[2]
  EC50: 610 nM

## CC(C)(O)[C@H](F)CNC(=O)c1cnc2c([nH]c3cc(C#N)ccc32)c1NC1CCC1 [Example 4, (R)-7-cyano-4-(cyclobutylamino)-N-(2-fluoro-3-hydroxy-3-methylbutyl)-5H-pyrido[3,2-b]indole-3-carboxamide]
[1]
  IC50: 2 nM
[2]
  EC50: 1990 nM

## C[C@@H](CO)Nc1c(C(=O)NCCC(C)(C)O)cnc2c1[nH]c1cc(C#N)ccc12 [Example 30, (S)-7-cyano-N-(3-hydroxy-3-methylbutyl)-4-((1-hydroxypropan-2-yl)amino)-5H-pyrido[3,2-b]indole-3-carboxamide]
[1]
  IC50: 5.3 nM
[2]
  EC50: 3380 nM

## CC(C)Nc1c(C(=O)NC2CCN(S(C)(=O)=O)CC2)cnc2c1[nH]c1cc(C#N)ccc12 [Example 63, 7-cyano-4-(isopropylamino)-N-(1-(methylsulfonyl)piperidin-4-yl)-5H-pyrido[3,2-b]indole-3-carboxamide]
[1]
  IC50: 7.1 nM
[2]
  EC50: > 20000 nM

## CC(C)Nc1c(-c2cc(C3CCCCN3)no2)cnc2c1[nH]c1cc(C#N)ccc12 (centres unmarked) [Example 80, 4-(isopropylamino)-3-(3-(piperidin-2-yl)isoxazol-5-yl)-5H-pyrido[3,2-b]indole-7-carbonitrile]
[1]
  IC50: 18 nM
[2]
  EC50: 3310 nM

## CC(C)Nc1c(-c2cn(CC3CC3)nn2)cnc2c1[nH]c1cc(C#N)ccc12 [Example 74, 3-(1-(cyclopropylmethyl)-1H-1,2,3-triazol-4-yl)-4-(isopropylamino)-5H-pyrido[3,2-b] indole-7-carbonitrile]
[1]
  IC50: 9.2 nM
[2]
  EC50: > 10000 nM

## CC(C)Nc1c(C(=O)N[C@H]2C[C@H](C(C)(C)O)C2)cnc2c1[nH]c1cc(C#N)ccc12 [Example 39, 7-cyano-N-((1R,3R)-3-(2-hydroxypropan-2-yl)cyclobutyl)-4-(isopropylamino)-5H-pyrido[3,2-b] indole-3-carboxamide]
[1]
  IC50: 3.9 nM
[2]
  EC50: > 20000 nM

## CC(C)Nc1c(C(=O)NCCN2CCOCC2)cnc2c1[nH]c1cc(C#N)ccc12 [Example 35, 7-cyano-4-(isopropylamino)-N-(2-morpholinoethyl)-5H-pyrido[3,2-b]indole-3-carboxamide]
[1]
  IC50: 3 nM
[2]
  EC50: 770 nM

## CC(C)Nc1c(C(=O)NCCC2CC2)cnc2c1[nH]c1cc(C#N)ccc12 [Example 34, 7-cyano-N-(2-cyclopropylethyl)-4-(isopropylamino)-5H-pyrido[3,2-b]indole-3-carboxamide]
[1]
  IC50: 3.4 nM
[2]
  EC50: 580 nM

## CC(C)Nc1c(C(=O)NC[C@@H](F)C(C)(C)O)cnc2c1[nH]c1cc(C#N)ccc12 [Example 1, (R)-7-cyano-N-(2-fluoro-3-hydroxy-3-methylbutyl)-4-(isopropylamino)-5H-pyrido [3,2-b]indole-3-carboxamide]
[1]
  IC50: 2 nM
[2]
  EC50: 430 nM
